Test results from US10183032B2, “Methods for treating bacterial infection” (Ball State Innovation Corporation, priority 2012, dated 2019).

How the values were obtained:
[1] = test system: RAW 264.7 cells; assay: Cytotoxicity by propidium iodide, RAW 264.7 cells; format: cell-based; conditions: RAW 264.7 pretreated 18-20 h
[2] = test system: Staphylococcus aureus; assay: S. aureus invasion of serum-starved RAW 264.7 cells, CFU recovery; format: cell-based; conditions: treatment 1 hour, serum-starved conditions, 10 μM
Method: FIG. 5 is a graph illustrating ML 141 inhibiting invasion with shorter duration exposure under serum starved conditions. RAW 264.7 cells were serum-starved overnight then pretreated for 1 hour with the vehicle control dimethyl sulfoxide (DMSO) or with ML 141 (10 μM). Following infection with Staphylococcus aureus (1 hour), extracellular bacteria were eliminated using the antimicrobials gentamicin and lysostaphin (45 minutes), and intracellular bacteria recovered by permeabilizing the host cells. Serial dilutions of the recovered intracellular bacteria were incubated on tryptic soy agar, colonies enumerated, and colony forming units (CFU)/ml calculated (*less than vehicle control; p≤0.05 by Student's t-test; n=3/treatment). […]
Two days prior to the assay, TSB is inoculated with S. aureus (American Type Culture Collection #29213) and incubated overnight (225 rpm, 37° C.). […] To detect the level of infection using flow cytometry, cells that have been infected with fluorescently-labeled bacteria are washed extensively with PBS, lifted from 96-well plate by incubation with trypsin, washed extensively in FACS buffer (2% BSA/0.1% sodium azide/PBS), fixed (FACS buffer containing 0.74% formaldehyde), and are counted using an Accuri flow cytometer (BD, Franklin Lakes, N.J.). […]

[3] = test system: β1 integrin subunit; assay: β1 integrin surface expression in HUVEC, flow cytometry; format: cell-based, human; conditions: ML 141 10 μM versus DMSO
Method: FIG. 10B is a graph illustrating that expression of the […] integrin subunit remains substantially unchanged in HUVEC incubated with DMSO or ML 141 (10 μM). Pretreated HUVEC were stained with PE conjugated anti-β1 and examined using flow cytometry (no difference between groups was detected, t-test, p>0.05).
To examine β1 surface expression, recycling of the integrin was terminated (4° C., 15 min) and HUVEC lifted from plates using cell scrapers. After washing in FACS buffer (2% BSA/0.1% sodium azide/PBS), cells were incubated with PE-conjugated anti-β1 (BD; 30 min, on ice), washed, fixed in FACS buffer containing 4% paraformaldehyde, and analyzed using an Accuri C6 flow cytometer (BD).

[4] = test system: Human umbilical vein endothelial cells; assay: Cytotoxicity assay (XTT), HUVEC; format: cell-based; conditions: HUVEC treated overnight, PEG solvent
Method: FIG. 6A illustrates that neither cytotoxicity nor bactericidal activity is detected. Human umbilical vein endothelial cells (HUVEC) were pretreated (18 hours) with the vehicle control polyethylene glycol (PEG) or with ML 141 and viability assessed using an XTT assay. The formazan dye produced in living cells was detectable at an absorbance wavelength of 490 nanometers and used as an indicator of cell viability. Absorbance values were not different amongst the groups (p>0.05 by one-way ANOVA; n=3/treatment).
HUVEC are plated at a density of 1.2×10^4 cells/ml into 96-well dishes coated with Attachment Factor. The next day, cells are pretreated with the vehicle control DMSO or with ML 141 (18 hours). An XTT-reducing assay is performed and absorbance read at 490 nanometers using a Bio-Rad plate reader.

[5] = test system: fibronectin; assay: Fibronectin adhesion assay, HUVEC; format: cell-based, human; conditions: ML 141 10 μM, 18-20 h; re-plated 2 h; vehicle 24±4%
Method: FIG. 10C is a graph illustrating that ML 141 decreases cell adhesion to fibronectin-coated surface. HUVEC were pretreated as in FIGS. 10A and 10B, lifted from culture dishes using cell scrapers, and re-plated (2 h) onto non-tissue culture treated plates coated with fibronectin and blocked with bovine serum albumin. Following extensive washes, cells were recovered using trypsin and counted using an Accuri C6 flow cytometer (*p<0.05 by t-test on log-transformed data pooled from 2 independent experiments, n=8/treatment).
HUVEC were plated and pretreated as described for the invasion assay. 96-well, non-tissue culture treated plates (Sarstedt, Newton, N.C.) were coated with fibronectin (20 μg/ml; 2 h; 37° C.), washed with PBS, and blocked with bovine serum albumin (2%, 30 min, RT). HUVEC were lifted from the 35 mm dishes using cell scrapers, 100 μl counted for normalization using the Accuri C6, and 200 μl transferred to the 96-well plate (2 h, 5% CO2, 37° C.). After extensive washes in PBS, cells were removed from the plate using trypsin, washed in FACS buffer, fixed, and 100 μl counted. These cell counts were normalized to those that had been taken prior to plating on the fibronectin-coated plate.

COc1ccc(C2CC(c3ccccc3)=NN2c2ccc(S(N)(=O)=O)cc2)cc1 (centres unmarked) [ML 141, 4-[3-(4-methoxyphenyl)-5-phenyl-3,4-dihydropyrazol-2-yl]benzenesulfonamide]
Mean fluorescence intensity (×10^3 ± SEM), Compound (10 μM) [1]: 2.5 ± 0.3 ×10^3
inhibition of invasion, shorter exposure [2]: Inhibition is detectable
expression of β1 integrin subunit [3]: no difference
Cytotoxicity (XTT, absorbance 490 nm) [4]: not detectable
adherence of HUVEC to fibronectin-coated plates [5]: 14±2%
